The NIST ThermoML archive (doi:10.1021/je034255e)
Numbers after ± are expanded uncertainties.

Key:
[1] = Liquid; for mass density: 101.33 kPa
[2] = excess molar enthalpy (molar enthalpy of mixing); xn = mol fraction of the nth substance listed; conditions: 413.15 K, 1620 kPa, Liquid, Flow calorimetry

CCC(N)=O [propanamide]
[1]
Conditions	mass density [kg/m3]	vapor or sublimation pressure [kPa]
355.65 K	963.2 ± 0.3	–
358.15 K	961.2 ± 0.3	–
363.15 K	957.2 ± 0.3	–
375.45 K	–	0.97 ± 0.08
384.15 K	–	1.53 ± 0.08
394.15 K	–	2.52 ± 0.08
403.65 K	–	4.02 ± 0.08
414.05 K	–	6.4 ± 0.09
427.65 K	–	11.22 ± 0.09
443.85 K	–	21.16 ± 0.11
455.55 K	–	31.04 ± 0.12
462.95 K	–	40.87 ± 0.14
469.05 K	–	50.69 ± 0.15
475.85 K	–	60.86 ± 0.16

CCC(N)=O [propanamide] + CCCCCCCCCCC
[2]
Conditions	excess molar enthalpy [kcal/mol]
x2 = 0.0092	0.0332 ± 0.0012
x2 = 0.0284	0.0576 ± 0.0012
x2 = 0.049	0.0607 ± 0.0012
x2 = 0.1074	0.0669 ± 0.0012
x2 = 0.7646	0.133 ± 0.00143
x2 = 0.9337	0.15 ± 0.00167
x2 = 0.9661	0.154 ± 0.00167
